# Experimental data as given in US11572548B2, “Reaction mixture for synthesis of alpha1-2-fucosides” (The Regents of the University of California, priority 2015, dated 2023).
# B1: His6-Te2FT: N-His6-tagged recombinant α1-2-fucosyltransferase from Thermosynechococcus elongatus BP-1 (SEQ ID NO:1) (protein, listed as Thermosynechococcus elongatus)
# chain: MIIVHLCGGLGNQMFQYAAGLAAAHRIGSEVKFDTHWFDATCLHQGLELRRVFGLELPEPSSKDLRKVLGACVHPAVRRLLAGHFLHGLRPKSLVIQPHFHYWTGFEHLPDNVYLEGYWQSERYFSNIADIIRQQFRFVEPLDPHNAALMDEMQSGVSVSLHIRRGDYFNNPQMRRVHGVDLSEYYPAAVATMIEKTNAERFYVFSDDPQWVLEHLKLPVSYTVVDHNRGAASYRDMQLMSACRHHIIANSTFSWWGAWLNPRPDKVVIAPRHWFNVDVFDTRDLYCPGWIVL
# modifications: N-terminal His6 tag
# Experiments:
# His6-Te2FT [1] = biological target: T1, His6-Te2FT (Thermosynechococcus vestitus, UniProt Q8DK72); assay: Effects of metal ions, DTT and EDTA on α1-2-fucosyltransferase activity; format: biochemical, Thermosynechococcus elongatus BP-1; details: pH 7.5; for effect on α1-2-fucosyltransferase activity: 10 mM added; for effect on α1-2-fucosyltransferase activity / enhancement of α1-2-fucosyltransferase activity: acceptor Galβ1-3GlcNAcβ2AA; for enhancement of α1-2-fucosyltransferase activity: 5-20 mM added
# Description: For metal effects, various concentrations (5 mM, 10 mM, or 20 mM) of MgCl2 or MnCl2 were added and EDTA (as a chelating agent) (10 mM) and DTT (10 mM) were used in a Tris-HCl buffer (pH 7.5, 200 mM) to analyze their effects on the α1-2-fucosyltransferase activity of His6-Te2FT for acceptor Galβ1-3GlcNAcβ2AA. Reaction without metal ions, EDTA and DTT was used as a control. The effects of metal ions Mg^2+ and Mn^2+ as well as DTT and the chelating agent EDTA on the α1-2-fucosyltransferase activity of His6-Te2FT toward and acceptor Galβ1-3GlcNAcβ2AA were examined at pH 7.5.
# His6-Te2FT [2] = biological target: T1, His6-Te2FT; assay: Kinetics of GDP-fucose hydrolysis by capillary electrophoresis assays; format: biochemical, Thermosynechococcus elongatus BP-1
# Description: The enzymatic assays were carried out in duplicate in a total volume of 10 μL in Tris-HCl buffer (200 mM, pH 9.0) containing MgCl2 (20 mM), GDP-fucose and the recombinant protein (4.5 μg). Reactions were allowed to proceed for 30 min at 37° C. Apparent kinetic parameters were obtained by varying the final GDP-fucose concentration from 0.4 to 2.0 mM (0.4, 0.5, 0.6, 0.8, 1.0 and 2.0 mM). Apparent kinetic parameters were obtained by fitting the data (the average values of duplicate assay results) into the Michaelis-Menten equation using Grafit 5.0.
# His6-Te2FT [3] = biological target: T1, His6-Te2FT; assay: Kinetics of α1-2-fucosyltransferase activity by HPLC assays; format: biochemical, Thermosynechococcus elongatus BP-1; details: for Km / kcat: 2FT activity, apparent, pH 6.0, 37° C., MgCl2 20 mM, other substrate fixed at 1 mM
# Description: Typical enzymatic assays were carried out in duplicate in a total volume of 10 μL in Tris-HCl buffer (pH 6.0, 200 mM) containing MgCl2 (20 mM), GDP-fucose, Galβ1-3GlcNAcβ2AA, and the recombinant His6-Te2FT (0.75 μg). All reactions were allowed to proceed for 10 min at 37° C. Apparent kinetic parameters were obtained by varying the GDP-fucose concentration from 0.1 to 10.0 mM (0.1, 0.2, 0.4, 1.0, 5.0, and 10.0 mM) and a fixed concentration of Galβ1-3GlcNAcβ2AA (1 mM); or a fixed concentration of GDP-fucose (1 mM) and varied concentrations of Galβ1-3GlcNAcβ2AA from 0.1 to 10.0 mM (0.1, 0.2, 0.4, 5.0, and 10.0 mM). The reaction mixture was quenched by boiling for 2 minutes and diluted 60-fold for detection. Apparent kinetic parameters were obtained by fitting the data into the Michaelis-Menten equation using Grafit 5.0.
# His6-Te2FT [4] = biological target: T1, His6-Te2FT; assay: Acceptor substrate specificity studies of His6-Te2FT; format: biochemical, Thermosynechococcus elongatus BP-1
# [5] = pH profile of GDP-fucose hydrolysis of His6-Te2FT by capillary electrophoresis; format: biochemical
# Description: Each reaction was carried out in duplicate at 37° C. for 30 minutes in a total volume of 10 μL in a buffer (200 mM) with pH varying from 3.0 to 11.0. The buffers used were: Citric, pH 3.0-4.0, NaOAc/HOAc, pH 4.5, MES, pH 5.0-6.5; Tris-HCl, pH 7.0-9.0; and CAPS, pH 10.0-11.0 containing GDP-fucose (1 mM), MgCl2 (20 mM) and the recombinant enzyme (3.75 μg). Reactions were stopped by boiling for 2 min followed by adding an equal volume of water (10 μL) to make a two-fold dilution. The samples were kept on ice until aliquots of 6 μL were withdrawn and analyzed by a Beckman P/ACE MDQ capillary electrophoresis system (60 cm×75 μm i.d.) with a PDA detector. The ratio of the absorbance for GDP-fucose and GDP at 254 nm was determined at different concentrations (2.5, 5, and 10 mM). All assays were carried out in duplicate.
# [6] = Effect of temperature on α1-2-fucosyltransferase activity of His6-Te2FT; format: biochemical
# Description: Assays were carried out in a total volume of 10 μL in a Tris-HCl buffer (pH 6.0, 200 mM) at temperatures ranging from 15° C. to 70° C. The reaction mixture contained GDP-fucose (1 mM), MgCl2 (20 mM), Galβ1-3GlcNAcβ2AA (1 mM), and the recombinant His6-Te2FT (1.5 μg). All reactions were allowed to proceed for 10 minutes at various temperatures. The reaction was stopped by boiling for 2 minutes, and diluted 60-fold for detection.
# [7] = pH profile of α1-2-fucosyltransferase activity of His6-Te2FT by HPLC; format: biochemical
# Description: Each reaction was carried out in duplicate at 37° C. for 10 minutes in a total volume of 10 μL in a buffer (200 mM) with pH varying from 3.0 to 11.0. The buffers used were: Citric, pH 3.0-4.0, NaOAc/HOAc, pH 4.5, MES, pH 5.0-6.5; Tris-HCl, pH 7.0-9.0; and CAPS, pH 10.0-11.0. The reaction system was: GDP-fucose (1 mM), fluorophore 2-anthranilic acid (2AA)-labeled oligosaccharide (Galβ1-3GlcNAcβ2AA, 1 mM), MgCl2 (20 mM), and the recombinant enzyme, His6-Te2FT (0.25 μg). The reaction mixture was stopped by boiling for 2 min and then adding an equal volume of water (10 μL) to make a […] dilution for Galβ1-3GlcNAcβ2AA. The samples were analyzed by a Shimadzu LC-2010A system equipped with a membrane online degasser, a temperature control unit and a fluorescence detector. A reverse-phase Premier C18 column (250×4.6 mm i.d., 5 μm particle size, Shimadzu) protected with a C18 guard column cartridge was used. The mobile phase was 20% acetonitrile. The ratio of the absorbance for fluorescent-labeled product at 315-400 nm was determined.
# [8] = Effect of freeze-dry cycle (lyophilization and rehydration) on His6-Te2FT activity; format: biochemical; details: lyophilized, rehydrated
# Description: Purified His6-Te2FT samples were prepared essentially as described in Example 1, and were dialyzed against 20 mM Tris-HCl without glycerol and lyophilized. The Te2FT powders were stored at −70° C. for 20 days, or for several months. After that, the dried powder was dissolved in water and 20 mM Tris-HCl buffer, respectively. The activities of the lyophilized His6-Te2FT samples were compared with the same amount and concentration of freshly prepared Te2FT samples. The reaction mixture was GDP-fucose (1 mM), Galβ1-3GlcNAcβ2AA, (1 mM), MgCl2 (20 mM), and His6-Te2FT (0.75 μg). All reactions were performed in duplicate and allowed to proceed for 10 minutes at 37° C.
# [9] = GDP-Fuc hydrolysis, apparent, pH 9.0, 37° C., MgCl2 20 mM
# [10] = acceptor Galβ1-3GlcNAcβ2AA, 37° C., 10 minutes
molecule,measurement,setting,value
"O[C@H](CS)[C@H](O)CS (racemic) [DTT, dithiothreitol]",effect on α1-2-fucosyltransferase activity,His6-Te2FT [1],decreased His6-Te2FT activity moderately
"O=C(O)CN(CCN(CC(=O)O)CC(=O)O)CC(=O)O [EDTA, ethylenediaminetetraacetic acid]",effect on α1-2-fucosyltransferase activity,His6-Te2FT [1],decreased its activity only slightly
"C[C@@H]1O[C@H](OP(=O)(O)OP(=O)(O)OC[C@H]2O[C@@H](n3cnc4c(=O)[nH]c(N)nc43)[C@H](O)[C@@H]2O)[C@@H](O)[C@H](O)[C@@H]1O [GDP-fucose, Guanosine 5′-diphosphate-fucose]",Km,His6-Te2FT [2]; [9],560 ± 210 µM
same,kcat,His6-Te2FT [2]; [9],0.005 ± 0.001 s⁻¹
same,GDP-fucose (donor) hydrolysis activity weaker than α1-2-fucosyltransferase activity,"His6-Te2FT [2]; His6-Te2FT, ratio of kcat/KM",47 fold
same,Km,His6-Te2FT [3],730 ± 680 µM
same,kcat,His6-Te2FT [3],0.438 ± 0.013 s⁻¹
same,"kcat value for GDP-fucose, higher compared to GST-WbsJ","His6-Te2FT [3]; His6-Te2FT versus GST-WbsJ, acceptor Galβ1-3GlcNAcβ2AA",201 fold
same,"kcat value for GDP-fucose, higher compared to His6Prop-WgbL","His6-Te2FT [3]; His6-Te2FT versus His6Prop-WgbL, acceptor Galβ1-3GlcNAcβ2AA",6.7 fold
same,"kcat value for GDP-fucose, higher compared to Hp2FT","His6-Te2FT [3]; His6-Te2FT versus Hp2FT, acceptor Galβ1-3GlcNAcβ2AA",14.6 fold
same,"kcat/KM value for GDP-Fuc, higher than WbgL",His6-Te2FT [3]; His6-Te2FT versus WbgL,2.5 fold
same,"kcat/KM value for GDP-Fuc, higher than WbsJ",His6-Te2FT [3]; His6-Te2FT versus WbsJ,29.2 fold
"[Cl-].[Cl-].[Mg+2] [Mg^2+, MgCl2]",enhancement of α1-2-fucosyltransferase activity,His6-Te2FT [1],about two-fold
"[Cl][Mn][Cl] [Mn^2+, MnCl2]",enhancement of α1-2-fucosyltransferase activity,His6-Te2FT [1],about two-fold
Gal1-3GlcNAcαOR,suitability as acceptor substrate for adding α1-2-linked fucose,His6-Te2FT [4],worked well
Gal β1-3GlcNAcβ1-3Galβ1-4Glc [LNT],suitability as acceptor substrate for adding α1-2-linked fucose,His6-Te2FT [4],excellent acceptor
Galβ1-3GalNAcαOR,suitability as acceptor substrate for adding α1-2-linked fucose,His6-Te2FT [4],worked well
Galβ1-3GalNAcβOR,suitability as acceptor substrate for adding α1-2-linked fucose,His6-Te2FT [4],worked well
Galβ1-3GlcNAcβ2AA,Km,His6-Te2FT [3],790 ± 110 µM
same,kcat,His6-Te2FT [3],0.333 ± 0.012 s⁻¹
same,"affinity for the acceptor compared to GST-WbsJ, His6Prop-WgbL and Hp2FT",His6-Te2FT [3]; His6-Te2FT versus other 2FTs,higher affinity
Galβ1-3GlcNAcβOR,suitability as acceptor substrate for adding α1-2-linked fucose,His6-Te2FT [4],worked well
Galβ1-4GlcNAcβOR,suitability as acceptor substrate for adding α1-2-linked fucose,His6-Te2FT [4],not good acceptors
Galβ1-4GlcβOR,suitability as acceptor substrate for adding α1-2-linked fucose,His6-Te2FT [4],not good acceptors
B1,optimal pH for the GDP-fucose hydrolysis activity,"[5]; 37° C., 30 minutes",9.5
same,donor hydrolysis activity,"[5]; pH range 5.0-8.0, 15-fold more enzyme and 3-fold longer reaction time",at a minimum
same,requirement of a divalent metal ion for α1-2-fucosyltransferase activity,His6-Te2FT [1],not required
same,activity at low temperature,[6]; 15° C. and 20° C.,Low activity
same,activity at high temperature,[6]; 65° C. or 70° C.,minimal activity
same,temperature range in which active,"[6]; pH 6.0, 10 minutes",25-60 °C
same,temperature range of optimal activities,"[6]; pH 6.0, 10 minutes",30-45 °C
same,pH of optimal activities,[7]; [10],4.5-6.0
same,pH range in which active,[7]; [10],4.0-10.0
same,activity as % of the optimal activity,[7]; pH 6.5,About 85%
same,stability to freeze-dry treatment,[8],can survive a freeze-dry treatment
